Read-outs that look alike come from different tables or passages of the source.
Legend:
[1] = tested on: Red cells; assay: Oxygen carrying ability (oxygen content by CO-oximeter); type: cell-based, human; conditions: CO-treated
Description: A semi-quantitative measure of oxygen carrying ability by DTBP cross-linked and reversed cells was performed. Red cells cross linked with 5 mM DTBP for different incubation times and cells reversed with DTT (see above) were processed through a membrane oxygenator to replace CO with oxygen. Oxygen saturation of the cells was measured using a CO-oximeter. After the oxygenation, cells were subjected to deoxygenation under a stream of nitrogen for 30 min. Percentage oxygen was measured again by the CO-oximeter. Oxygen binding and releasing properties for cross-linked, reversed and normal cells were compared.
We measured oxygen content (Vol%O2) of cells subjected to cross-linking and reversal with a CO-oximeter 282. […] CO-treated and cross-linked cells with 5 mM DTBP for 5 h, which underwent re-oxygenation in the membrane oxygenator had oxygen content of 7.3 Vol%O2.

[2] = tested on: Red blood cells; assay: Metabolic viability: ATP content of red blood cells over time; type: cell-based, human
Description: The metabolic viability of cross-linked cells was assayed by monitoring the production and depletion of ATP over time. DTBP cells were cross-linked in 5 mM DTBP 150 mM glucose for 5 hours at 4° C. The cells were then washed 3 times and incubated in 150 mM glucose for an additional 19 hrs. After washing to remove the glucose the cells were incubated at 4° C. in PBS for 72 hrs before being returned to 150 mM glucose for the final 24 hr incubation. At each time point cells were removed, washed, and spectrophotometrically assayed for ATP as described in the text. The glucose controls were cells treated in the same manor but without crosslinking, and the control cells are cells without exposure to glucose.

[3] = tested on: Human erythrocytes; assay: Osmotic fragility test; type: cell-based; conditions: 5 mM DTBP
Description: An osmotic fragility test (a common clinical test) was performed on erythrocytes cross-linked with 5 mM DTBP for different incubation times and on erythrocytes cross-linked and reversed with DTT. Briefly, 1 ml of the erythrocyte suspension was taken out at regular incubation times, centrifuged, and DTBP or DTT was removed (Eppendorf centrifuge for 3 min at 3000×g). 1 ml of solutions containing buffered sodium sodium chloride at different concentrations (from 1% to 0.1% NaCl in phosphate buffer) were added to the packed cells. After 30 min the samples were centrifugated (Eppendorf centrifuge for 3 min at 3000×g), and the supernatants were processed for hemolysis measurements.

[4] = tested on: Human erythrocytes; assay: cells; type: cell-based
Description: Packed human erythrocytes from healthy donors were obtained from the National Naval Medical Center (Bethesda, Md.) within 48 h of donation and used within 7 days. Packed erythrocytes were washed twice in phosphate buffer solution (PBS) then re-suspended in PBS (1 vol PBS:1 vol packed cells). The erythrocyte suspension (100 ml) was placed on ice and carbon monoxide (CO) was bubbled through it for 2 hours. Saturation with CO (100%) was achieved under these conditions as detected with a CO-oximeter. Erythrocytes were packed and cross-linked with DTBP at 4° C. for different incubation times (from 1 to 24 h; 9 vol cross-linking solution: 1 vol packed cells). The cross-linking solution was prepared by dissolving DTBP in PBS (pH 7.8). After incubation DTBP was removed by repeated washing of the red cells in PBS (IEC Centra centrifuge for 10 min at 1008×g). Reversal of the cross-linking was carried out at room temperature with the reducing agent dithioerythritol (DTT) at a concentration of 10 mM in PBS (9 vol reducing solution: 1 vol packed cells) for 20 min or as indicated in the figure legends. DTT was removed by repeated washing of the red cells in PBS (IEC Centra centrifuge for 10 min at 1008×g). CO-treatment was reversed at room temperature using a hollow fiber membrane oxygenator model Capiox 308. Erythrocytes were processed through the oxygenator for 1 h. Saturation with oxygen (92%) was reached as detected with a CO-oximeter.
Erythrocytes were cross-linked with DTBP at different concentrations for different incubation times. 1 ml of the erythrocyte suspension was taken out at regular incubation times centrifuged and DTBP was removed (Eppendorf centrifuge for 3 min at 3000×g). Distilled water (1 ml) was added to the remaining packed cells. After 30 min the cells were again centrifugated (Eppendorf centrifuge for 3 min at 3000×g), and the supernatants were processed for hemolysis measurements. For determination of hemolysis the cyanmethemoglobin method was applied (see Brown in “Hematology: principles and procedures” pp. 29-31 (Lea and Febiger, eds., 1984)). Absorbance was measured at 540 nm and percent hemolysis was determined by Equation (1), supra, where the control sample was lysed in distilled water.
Erythrocyte stability in distilled water was tested after crosslinking reversal as well. Red blood cells were first cross-linked with DTBP then treated with DTT at different concentrations (from 1 to 10 mM) for different incubation times (from 5 to 20 min). Hemolysis in distilled water was measured as described above.

[5] = Homo sapiens, Erythrocyte, 4 h, read-out: hemolysis in distilled water

For `COC(=N)CCSSCCC(=N)OC` [DTBP, Dimethyl-3,3′-dithiobispropionimidate], which oxygen content ([1]; 5 mM DTBP 5 h, re-oxygenated then deoxygenated with nitrogen) is on record?
Its oxygen content is 2.9 Vol%O2.

And the oxygen content ([1]; 5 mM DTBP for 5 h, re-oxygenated in membrane oxygenator)?
Its oxygen content is 7.3 Vol%O2.

And the “ATP Content” value ([2]; 5 mM DTBP 5 h, 72 hrs in PBS)?
Its value is 51.7 µmol/dL.

And the ATP ([2]; 5 mM DTBP 5 h, after 72 hours in PBS at 4° C.)?
Its ATP is 51.7 µmol/dL.

What about the “ATP Content” value ([2]; 5 mM DTBP 5 h, final 24 hrs in glucose after PBS) of the same compound?
The value was 51.5 µmol/dL.

And the “ATP Content” value ([2]; 5 mM DTBP 5 h at 4° C., 24 hrs in glucose (first))?
The value was 76.1 µmol/dL.

And the “NaCl concentration at which hemolysis started” value ([3]; 1 h cross-linked cells)?
Its value is 0.4 % NaCl.

What about the “NaCl concentration at which total lysis was first measured” value ([3]; 1 h cross-linked cells) of the same compound?
Its value is 0.1 % NaCl.

And the “NaCl concentration at which hemolysis started” value ([3]; 3 h cross-linked cells)?
Its value is 0.30 % NaCl.

And the “NaCl concentration at which total lysis was first measured” value ([3]; 3 h cross-linked cells)?
Its value is 0.0 % NaCl.

And the “hemolysis in distilled water” value ([4]; 1 or 3 mM DTBP, even after prolonged incubation times)?
Its value is “did not produce cells stable to hemolysis in distilled water”.

What about the hemolysis at 5000 µM ([4]; Homo sapiens, Erythrocyte, 3 h, read-out: hemolysis in distilled water) of the same compound?
Its hemolysis at 5000 µM is 100%.

What about the hemolysis at 5000 µM [4, 5] of the same compound?
The hemolysis at 5000 µM was 88%.

What about the hemolysis at 7000 µM [4, 5] of the same compound?
The hemolysis at 7000 µM was 21%.

And the hemolysis at 10000 µM [4, 5]?
The hemolysis at 10000 µM was 0%.

What about the hemolysis at 5000 µM ([4]; Homo sapiens, Erythrocyte, 5 h, read-out: hemolysis in distilled water) of the same compound?
Its hemolysis at 5000 µM is 67%.

And the hemolysis at 5000 µM ([4]; Homo sapiens, Erythrocyte, 7 h, read-out: hemolysis after the treatment with DTT)?
The hemolysis at 5000 µM was 35%.

And the hemolysis at 5000 µM ([4]; Homo sapiens, Erythrocyte, 7 h, read-out: hemolysis in distilled water)?
The hemolysis at 5000 µM was 45%.

And the hemolysis at 5000 µM ([4]; Homo sapiens, Erythrocyte, 24 h, read-out: hemolysis after the treatment with DTT)?
The hemolysis at 5000 µM was 100%.

What about the hemolysis at 5000 µM ([4]; Homo sapiens, Erythrocyte, 24 h, read-out: hemolysis in distilled water) of the same compound?
The hemolysis at 5000 µM was 10%.

What about the “stability in the presence of the reducing agent (DTT)” value ([4]; cells with lower degree of stabilization (5 mM DTBP 5 h, 67% lysis in water)) of the same compound?
Its value is “stable in the presence of the reducing agent”.

Reference: patent US6436705B1, “Shape stabilized erythrocytes” (The United States of America as represented by the …, priority 1997, dated 2002)
